Patent US20240368181A1, “QUINOXALINE DERIVATIVES AND USES THEREOF” (Black Diamond Therapeutics, Inc., priority 2021, published 2024)

Columns and labels:
Format in all cases: cell-based
[1] = system: DMS-114 (FGFR1 overexpression) cells; assay: Cell proliferation assay (CellTiterGlo), DMS-114 cells; conditions: 72 hours, inhibition of cell growth, intracellular ATP (CellTiterGlo)
Description: (§1) The following is a non-limiting example that describes a cell proliferation assay used to determine the biological activity of the compounds of the present disclosure. More specifically, the assay as used to assess the ability of the compounds to inhibit cell proliferation.
(§2) Briefly, SNU-16 (FGFR2-amplification) cells, were resuspended at 18,520c/ml mL in RPMI containing 10% Heat Inactivated FBS, 1% L-glutamine and dispensed in duplicate (463c/well) into 384 well plates. UM-UC-14 (FGFR3-S249C) cells were resuspended at 40.000c/ml mL in RPMI containing 10% Heat Inactivated FBS, 1% L-glutamine and dispensed in duplicate (1000c/well) into 384 well plates. DMS-114 (FGFR1 overexpression) cells and were resuspended at 40,000c/ml mL in RPMI containing 10% Heat Inactivated FBS, 1% L-glutamine and dispensed in duplicate (1000c/well) into 384 well plates. RT-112 (FGFR3-Tacc3 fusion) cells were resuspended at 40,000c/ml mL in RPMI containing 10% Heat Inactivated FBS, 1% L-glutamine and dispensed in duplicate (1000c/well) into 384 well plates. To determine the effect of the compounds of the present disclosure on cell proliferation, SNU-16, UM-UC-14, DMS-114 and RT112 cells were incubated for 72 hours in the presence of vehicle control (DMSO) or a compound of the present disclosure at varying concentrations. Inhibition of cell growth was subsequently determined by luminescent quantification (Envision by Perkin Elmer) of intracellular ATP content using CellTiterGlo (Promega), according to the protocol provided by the manufacturer. To determine the IC50 values, the vehicle-treated cells were normalized as viable cells and analyzed using the CDD Vault software (Collaborative Drug Discovery, Burlingame, CA).

[2] = system: SNU-16 (FGFR2-amplification) cells; assay: Cell proliferation assay (CellTiterGlo), SNU-16 cells; conditions: inhibition of cell growth, intracellular ATP (CellTiterGlo)
Description: as §1, §2

[3] = system: UM-UC-14 (FGFR3-S249C) cells; assay: Cell proliferation assay (CellTiterGlo), UM-UC-14 cells; conditions: UMUC14, 72 h, inhibition of cell growth, intracellular ATP (CellTiterGlo)
Description: as §1, §2

[4] = system: RT-112 (FGFR3-Tacc3 fusion) cells; assay: Cell proliferation assay (CellTiterGlo), RT-112 cells; conditions: RT112 cells, inhibition of cell growth, intracellular ATP (CellTiterGlo)
Description: as §1, §2

[5] = system: UM-UC-14 (FGFR3-S249C) cells; assay: cell proliferation assay (CellTiterGlo), UM-UC-14 cells; conditions: UMUC14, 72 h
Method in brief: (§3)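 Luminescent ATP read-out (CellTiterGlo) after exposure to compound at varying concentrations or DMSO vehicle. IC50 derived with vehicle-treated wells set as viable cells.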

[6] = system: SNU-16 (FGFR2-amplification) cells; assay: cell proliferation assay (CellTiterGlo), SNU-16 cells; conditions: Homo sapiens, 72 hours
Method in brief: as §3

[7] = system: DMS-114 (FGFR1 overexpression) cells; assay: cell proliferation assay (CellTiterGlo), DMS-114 cells; conditions: Homo sapiens, DMS-114, 72 h
Method in brief: as §3

[8] = system: RT-112 (FGFR3-Tacc3 fusion) cells; assay: cell proliferation assay (CellTiterGlo), RT-112 cells; conditions: Homo sapiens, RT-112, RT112 cells, 72 hours
Method in brief: as §3

IC50 [6] [nM]	SMILES	IC50 ([1]; Homo sapiens) [nM]	IC50 [3] [nM]	IC50 ([4]; Homo sapiens, RT-112, 72 h) [nM]	IC50 [5] [nM]	IC50 [7] [nM]	IC50 [8] [nM]	other results
	Cc1nc2ccc(Oc3ccc4ncc(-c5cnn(CC6CC(C)OC(C)C6)c5)nc4c3Cl)cc2[nH]1 (centres unmarked) [Compound 1]	20 to 100						IC50 ([2]; Homo sapiens, SNU-16, 72 h): 20 to 100 nM
	Cc1nc2ccc(Oc3ccc4ncc(-c5cnn(CC6CCOC6)c5)nc4c3Cl)cc2[nH]1 (centres unmarked) [Compound 2]	≥ 400	20 to 100	20 to 100				IC50 ([2]; Homo sapiens, SNU-16, 72 h): 20 to 100 nM
	Cc1nc2ccc(Oc3ccc4ncc(-c5cnn(CC6CCN(C)C(C)(C)C6)c5)nc4c3Cl)cc2[nH]1 (centres unmarked) [Compound 3]	100 to 400	20 to 100	20 to 100				IC50 ([2]; Homo sapiens, SNU-16, 72 h): 20 to 100 nM
	Cc1nc2ccc(Oc3ccc4ncc(-c5cnn(CC6CCN(C)C6)c5)nc4c3Cl)cc2[nH]1 (centres unmarked) [Compound 4]	100 to 400	20 to 100	20 to 100				IC50 ([2]; Homo sapiens, SNU-16, 72 h): 20 to 100 nM
	Cc1nc2ccc(Oc3ccc4ncc(-c5cnn(CC6CC(C)N(C)C(C)C6)c5)nc4c3Cl)cc2[nH]1 (centres unmarked) [Compound 5]	≥ 400	20 to 100	20 to 100				IC50 ([2]; Homo sapiens, SNU-16, 72 h): 20 to 100 nM
	Cc1nc2ccc(Oc3ccc4ncc(-c5cnn(CC#N)c5)nc4c3Cl)cc2[nH]1 [Compound 6]	≥ 400	100 to 400	20 to 100				IC50 ([2]; Homo sapiens, SNU-16, 72 h): 20 to 100 nM
	Cc1nc2ccc(Oc3ccc4ncc(-c5cnn(C6CCCNC6)c5)nc4c3Cl)cc2[nH]1 (centres unmarked) [Compound 7]	100 to 400	20 to 100	20 to 100				IC50 ([2]; Homo sapiens, SNU-16, 72 h): 20 to 100 nM
	Cc1nc2ccc(Oc3ccc4ncc(-c5cnn(CC6CCOC(C)(C)C6)c5)nc4c3Cl)cc2[nH]1 (centres unmarked) [Compound 8]	100 to 400	20 to 100	< 20				IC50 ([2]; Homo sapiens, SNU-16, 72 h): 20 to 100 nM
	CC(=O)N1CCC(Cn2cc(-c3cnc4ccc(Oc5ccc6nc(C)[nH]c6c5)c(Cl)c4n3)cn2)CC1 [Compound 34]	≥ 400	20 to 100	< 20				
	Cc1nc2ccc(Oc3ccc4ncc(-c5cnn(CC6CCNCC6)c5)nc4c3Cl)cc2[nH]1 [Compound 47]							IC50 [1]: ≥ 400 nM; IC50 ([4]; 72 hours): 20 to 100 nM; IC50 ([2]; 72 hours): 100 to 400 nM
	C=CC(=O)N1CCC(CCn2cc(-c3cnc4ccc(Oc5ccc6nc(C)[nH]c6c5)cc4n3)cn2)CC1 [Compound 54]	≥ 400	100 to 400	100 to 400				
	C=CC(=O)N1CCC(Cn2cc(-c3cnc4ccc(Oc5ccc6nc(C)[nH]c6c5)cc4n3)cn2)CC1 [Compound 56]	≥ 400	≥ 400	100 to 400				
	Cc1nc2ccc(Oc3ccc4ncc(-c5cnn(CC6CCN(C)CC6)c5)nc4c3)cc2[nH]1 [Compound 57]	≥ 400	100 to 400	≥ 400				
	Cc1nc2ccc(Oc3ccc4ncc(-c5cnn(CC6CCOCC6)c5)nc4c3Cl)cc2[nH]1 [Compound 58]	100 to 400	20 to 100	20 to 100				
20 to 100	Cc1nc2ccc(Oc3ccc4ncc(-c5cnn(C[C@@H]6CCN(C)C[C@H]6F)c5)nc4c3Cl)cc2[nH]1 [Compound 367]				20 to 100	100 to 400	< 20	
20 to 100	Cc1nc2ccc(Oc3ccc4ncc(-c5cnn(C[C@H]6CCN(C)C[C@H]6F)c5)nc4c3Cl)cc2[nH]1 [Compound 368]				20 to 100	100 to 400	20 to 100	
20 to 100	Cc1nc2ccc(Oc3ccc4ncc(-c5cnn([C@H]6CCNC[C@@H]6F)c5)nc4c3Cl)cc2[nH]1 [Compound 369]				20 to 100	≥ 400	20 to 100	
< 20	Cc1nc2ccc(Oc3ccc4ncc(-c5cnn(C6CCN(C)CC6)c5)nc4c3Cl)cc2[nH]1 [Compound 370]				20 to 100	100 to 400	20 to 100	
20 to 100	CSC1CCC(Cn2cc(-c3cnc4ccc(Oc5ccc6nc(C)[nH]c6c5)c(Cl)c4n3)cn2)CC1 (centres unmarked) [Compound 371]				100 to 400	≥ 400	20 to 100	

IC50 [6] [nM]	SMILES	IC50 ([1]; Homo sapiens) [nM]	IC50 [3] [nM]	IC50 ([4]; Homo sapiens, RT-112, 72 h) [nM]	IC50 [5] [nM]	IC50 [7] [nM]	IC50 [8] [nM]	other results
20 to 100	CCS(=O)(=O)N1CC(n2cc(-c3cnc4ccc(Oc5ccc6nc(C)[nH]c6c5)c(Cl)c4n3)cn2)C1 [Compound 372]				20 to 100	≥ 400	20 to 100	
20 to 100	CC(=O)N1CCCC(n2cc(-c3cnc4ccc(Oc5ccc6nc(C)[nH]c6c5)c(Cl)c4n3)cn2)C1 (centres unmarked) [Compound 373]				20 to 100	≥ 400	20 to 100	
20 to 100	CCS(=O)(=O)N1CC(CC#N)(n2cc(-c3cnc4ccc(Oc5ccc6nc(C)[nH]c6c5)c(Cl)c4n3)cn2)C1 [Compound 374]				20 to 100	≥ 400	< 20	
20 to 100	Cc1nc2ccc(Oc3ccc4ncc(-c5cnn(CC6CCNCC6F)c5)nc4c3Cl)cc2[nH]1 (centres unmarked) [Compound 375]				20 to 100	100 to 400	< 20	
20 to 100	Cc1nc2ccc(Oc3ccc4ncc(-c5cnn(CCC6C=CCO6)c5)nc4c3Cl)cc2[nH]1 (centres unmarked) [Compound 376]				20 to 100	≥ 400	20 to 100	
20 to 100	Cc1nc2ccc(Oc3ccc4ncc(-c5cnn(CC6CCSCC6)c5)nc4c3Cl)cc2[nH]1 [Compound 377]				20 to 100	≥ 400	20 to 100	
20 to 100	Cc1nc2ccc(Oc3ccc4ncc(-c5cnn(C6CCCN(C)C6)c5)nc4c3Cl)cc2[nH]1 (centres unmarked) [Compound 378]				20 to 100	≥ 400	20 to 100	
20 to 100	Cc1nc2ccc(Oc3ccc4ncc(-c5cnn(CC6CC7CC6CN7C)c5)nc4c3Cl)cc2[nH]1 (centres unmarked) [Compound 379]				20 to 100	100 to 400	20 to 100	
20 to 100	Cc1nc2ccc(Oc3ccc4ncc(-c5cnn(CC6CCN(C)CC6(F)F)c5)nc4c3Cl)cc2[nH]1 (centres unmarked) [Compound 380]				20 to 100	≥ 400	< 20	
20 to 100	Cc1nc2ccc(Oc3ccc4ncc(-c5cnn(CCN6CCCC6)c5)nc4c3Cl)cc2[nH]1 [Compound 381]				20 to 100	≥ 400	20 to 100	
20 to 100	Cc1nc2ccc(Oc3ccc4ncc(-c5cnn(CC6CCN(C)CC6)c5)nc4c3C#N)cc2[nH]1 [Compound 382]				20 to 100	100 to 400	20 to 100	
20 to 100	Cc1nc2ccc(Oc3ccc4ncc(-c5cnn(CC(=O)N6CCCC6)c5)nc4c3Cl)cc2[nH]1 [Compound 383]				20 to 100	≥ 400	20 to 100	
≥ 400	C=CS(=O)(=O)N1CCC(Cn2cc(-c3cnc4ccc(Oc5ccc6nc(C)[nH]c6c5)c(Cl)c4n3)cn2)CC1 [Compound 384]				≥ 400	≥ 400	≥ 400	
20 to 100	Cc1nc2ccc(Oc3ccc4ncc(-c5cnn(CC6CCS(=O)(=O)CC6)c5)nc4c3Cl)cc2[nH]1 [Compound 385]				20 to 100	100 to 400	< 20	
20 to 100	Cc1nc2ccc(Oc3ccc4ncc(-c5cnn(CC6CCNCC6(F)F)c5)nc4c3Cl)cc2[nH]1 (centres unmarked) [Compound 386]				20 to 100	≥ 400	20 to 100	
20 to 100	Cc1nc2ccc(Oc3ccc4ncc(-c5cnn(CC6CC(F)(F)C6)c5)nc4c3Cl)cc2[nH]1 [Compound 387]				20 to 100	≥ 400	20 to 100	
100 to 400	CCOC(Cn1cc(-c2cnc3ccc(Oc4ccc5nc(C)[nH]c5c4)c(Cl)c3n2)cn1)OCC [Compound 388]				100 to 400	≥ 400	100 to 400	
20 to 100	Cc1nc2ccc(Oc3ccc4ncc(-c5cnn(CC6OCCCO6)c5)nc4c3Cl)cc2[nH]1 [Compound 389]				100 to 400	≥ 400	20 to 100	
